We go through four molecules from paper PMC9569995, “Study of Biological Activities and ADMET-Related Properties of Salicylanilide-Based Peptidomimetics” (International Journal of Molecular Sciences, 2022).

Data set [1] concerns Mycobacterium tuberculosis H37Ra/ATCC 25177. The experiment in a line: In vitro antimycobacterial evaluation, MIC (alamarBlue). The settings on record: MT; 14 days, 37 °C.
The nature of data set [2]: Lipophilicity determination by HPLC. The class given is physicochemical. The note with it: for log D6.5: HPLC C18, MeOH 72%/acetate-buffered saline pH 6.5 28%; for log D7.4: HPLC C18, MeOH 72%/acetate-buffered saline pH 7.4 28%; for log k: logarithm of capacity factor, HPLC C18, MeOH 72%/H2O 28%. In short, it runs like this:
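Symmetry C18 column at 40 °C, isocratic MeOH 72% with 28% water for capacity factor k, or with 28% acetate-buffered saline pH 7.4 or 6.5 for D7.4/D6.5. UV 210 nm; dead time from KI. k and D calculated as (tR − tD)/tD; triplicate runs.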

Data set [3] relates to methicillin-resistant S. aureus SA 3202. The data set can be described thus: Determination of minimum bactericidal concentrations (agar aliquot subculture). The settings on record: Staphylococcus aureus.
Data set [4] deals with vancomycin-resistant E. faecalis VRE 368. The experiment in a line: In vitro antibacterial evaluation, MIC by microtitration broth method. The settings on record: Enterococcus faecalis, 24 h.
Data set [5] concerns Staphylococcus aureus ATCC 29213. The description is as above. The settings on record: ATCC29213, 24 h.
In data set [6] the test system is vancomycin-resistant E. faecalis VRE 368. The data set can be described thus: Determination of minimum bactericidal concentrations (agar aliquot subculture). The settings on record: Enterococcus faecalis.
Data set [7] deals with methicillin-resistant S. aureus SA 630. The experiment in a line: In vitro antibacterial evaluation, MIC by microtitration broth method. The settings on record: Staphylococcus aureus, 24 h.
In data set [8] the test system is Mycobacterium kansasii. The settings on record: cited from earlier work.
The test system of data set [9] is vancomycin-resistant E. faecalis VRE 725B. The data set can be described thus: In vitro antibacterial evaluation, MIC by microtitration broth method. The note with it: Enterococcus faecalis, 24 h.
Data set [10] deals with human monocytic leukemia cell line THP-1. The experiment in a line: In vitro cell viability analysis (CCK-8). Type of data set: cell-based. The settings on record: ± SD, n = 6, medium with 10% FBS, 24 h. In short, it runs like this:
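THP-1 cells in RPMI 1640 with 10% FBS exposed to DMSO-dissolved compounds for 24 h at 37 °C, 5% CO2, in complete medium. Viability read by CCK-8.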

Data set [11] deals with vancomycin-resistant E. faecalis VRE 725B. The experiment in a line: Determination of minimum bactericidal concentrations (agar aliquot subculture). The note with it: Enterococcus faecalis.
Data set [12] relates to M. smegmatis ATCC 700084. The experiment in a line: In vitro antimycobacterial evaluation, MIC (broth dilution micro-method). The class given is cell-based, Mycobacterium smegmatis.
Data set [13] concerns vancomycin-resistant E. faecalis VRE 342B. The experiment in a line: In vitro antibacterial evaluation, MIC by microtitration broth method. The note with it: Enterococcus faecalis, 24 h.
Data set [14] concerns methicillin-resistant S. aureus SA 630. The data set can be described thus: Determination of minimum bactericidal concentrations (agar aliquot subculture). The note with it: Staphylococcus aureus.
Data set [15] relates to Enterococcus faecalis ATCC 29212. Described as above. The settings on record: ATCC29212.
The subject of data set [16] is Staphylococcus aureus ATCC 29213. Described as above. The settings on record: ATCC29213.
For data set [17], the system named is Enterococcus faecalis ATCC 29212. The experiment in a line: In vitro antibacterial evaluation, MIC by microtitration broth method. The note with it: ATCC29212, 24 h.
For data set [18], the system named is Clostridium perfringens. The note with it: cited from earlier work.
Data set [19] deals with methicillin-resistant S. aureus 63718. The data set can be described thus: In vitro antibacterial evaluation, MIC by microtitration broth method. The settings on record: Staphylococcus aureus, 24 h.
Data set [20] has the same test system. The data set can be described thus: Determination of minimum bactericidal concentrations (agar aliquot subculture). The settings on record: Staphylococcus aureus.
The subject of data set [21] is Bacillus cereus. The note with it: cited from earlier work.
In data set [22] the test system is methicillin-resistant S. aureus SA 3202. The data set can be described thus: In vitro antibacterial evaluation, MIC by microtitration broth method. The note with it: Staphylococcus aureus, 24 h.
For data set [23], the system named is M. smegmatis. The settings on record: cited from earlier work.
The subject of data set [24] is vancomycin-resistant E. faecalis VRE 342B. The experiment in a line: Determination of minimum bactericidal concentrations (agar aliquot subculture). The note with it: Enterococcus faecalis.
Data set [25] has as its system methicillin-resistant S. aureus 63718. More on the design: method as in PMID 26079401. The settings on record: MRSA 63718 (VA2-MRSA); cited from earlier work.
Data set [26] deals with S. aureus ATCC 29213. The data set can be described thus: MTT assay of bacterial viability (respiration). The settings on record: for Conc.: lowest multiple of MBC with at least 70% inhibition of S. aureus viability / Conc.: lowest multiple of MIC with at least 70% inhibition of S. aureus viability: MTT, 24 h.
Data set [27] relates to S. aureus ATCC 29123. The data set can be described thus: Crystal violet uptake (membrane permeability). The note with it: 4× MIC, 1 h; compared to growth control and 1% Tween 20.
[28] abbreviates: Mycolicibacterium smegmatis, ATCC700084, 72 h.

Molecules are shown by their SMILES. Converted amounts (≈) assume the structure as drawn. “And” between values parts separate entries of the source, which are not always exact repeats. Equal entries are not always repeated. Where two headings read alike, the source gives them in different places. Some results are limits rather than exact numbers.

For the molecule `CC(C)[C@H](NC(=O)c1cc(Cl)ccc1O)C(=O)Nc1ccc(C(F)(F)F)cc1` [3c, 5-Chloro-2-hydroxy-N-[(2S)-3-methyl-1-oxo-1-{[4-(trifluoromethyl)phenyl]amino}butan-2-yl]benzamide], the MIC in data set [1] was 77.1 n.d. µM; in data set [4], 38.6 µM (≈ 16 µg/mL); in [5], 2.41 µM (≈ 1 µg/mL); in data set [7], 4.82 µM (≈ 2 µg/mL); in [8], 38.6 µM (≈ 16 µg/mL); in data set [9], 38.6 µM (≈ 16 µg/mL). The MIC is 77.1 µM (≈ 32 µg/mL) in data set [12] (setting [28]); 38.6 µM (≈ 16 µg/mL) in data set [13]; 38.6 µM (≈ 16 µg/mL) in data set [17]; 4.82 µM (≈ 2 µg/mL) in [18]; 4.82 µM (≈ 2 µg/mL) in data set [19]; 2.41 µM (≈ 1 µg/mL) in [21]. Also, the MIC in data set [22] is 4.82 µM (≈ 2 µg/mL); in data set [23] it was 77.1 µM (≈ 32 µg/mL). Moreover, the “log D6.5” value in data set [2] was 0.973. For the same molecule, the “log D7.4” value in [2] is reported as 0.934. Moreover, in data set [2], the log k is reported as 1.081. For the same molecule, the MBC in data set [3] is 4.82 µM (≈ 2 µg/mL); in [6] it was 38.6 µM (≈ 16 µg/mL); in data set [11] it was 38.6 µM (≈ 16 µg/mL); in data set [14], 4.82 µM (≈ 2 µg/mL); in data set [15] it was 38.6 µM (≈ 16 µg/mL); in data set [16] it was 4.82 µM (≈ 2 µg/mL). In addition, the MBC was 9.64 µM (≈ 4 µg/mL) in data set [20] and 38.6 µM (≈ 16 µg/mL) in data set [24]. For the same molecule, the IC50 in [10] was more than 10 µM.

Regarding `CN[C@H](CC(C)C)C(=O)N[C@H]1C(=O)N[C@@H](CC(N)=O)C(=O)N[C@H]2C(=O)N[C@H]3C(=O)N[C@H](C(=O)N[C@H](C(=O)O)c4cc(O)cc(O)c4-c4cc3ccc4O)[C@H](O)c3ccc(c(Cl)c3)Oc3cc2cc(c3O[C@@H]2O[C@H](CO)[C@@H](O)[C@H](O)[C@H]2O[C@H]2C[C@](C)(N)[C@H](O)[C@H](C)O2)Oc2ccc(cc2Cl)[C@H]1O` [vancomycin], in [25], the MIC was 2 µg/mL (≈ 1.38 µM).

In the case of `CSCC[C@H](NC(=O)c1cc(Cl)ccc1O)C(=O)Nc1ccc(C(F)(F)F)cc1` [3e, 5-Chloro-2-hydroxy-N-[(2S)-4-(methylsulfanyl)-1-oxo-1-{[4-(trifluoromethyl)phenyl]amino}butan-2-yl]benzamide], the MIC in [1] was 35.8 µM and 35.8 n.d. µM; in [4], 17.9 µM (≈ 8 µg/mL); in data set [5], 2.24 µM (≈ 1 µg/mL); in data set [7], 4.48 µM (≈ 2 µg/mL); in data set [9], 35.8 µM (≈ 16 µg/mL); in [12] (MS, three days, 37 °C) it was 35.8 n.d. µM. Further, the MIC in [12] (setting [28]) worked out at 35.8 µM (≈ 16 µg/mL); in data set [13] it was 35.8 µM (≈ 16 µg/mL); in data set [17], 17.9 µM (≈ 8 µg/mL); in [19], 8.95 µM (≈ 4 µg/mL); in data set [22] it was 8.95 µM (≈ 4 µg/mL). Besides, in [2], the “log D6.5” value is given as 1.021. For the same molecule, the “log D7.4” value in data set [2] is recorded as 0.963. The log k in data set [2] is given as 1.076. The minimal bactericidal concentration (MBC) in data set [3] was found to be 8.95 µM (≈ 4 µg/mL); in data set [6] it was 35.8 µM (≈ 16 µg/mL); in [11] it was 35.8 µM (≈ 16 µg/mL); in data set [14], 8.95 µM (≈ 4 µg/mL); in [15], 35.8 µM (≈ 16 µg/mL); in data set [16] it was 2.24 µM (≈ 1 µg/mL). Also, the MBC turned out to be 8.95 µM (≈ 4 µg/mL) in data set [20] and 35.8 µM (≈ 16 µg/mL) in [24]. In data set [10], this molecule returned a half-inhibitory concentration (IC50) of more than 10 µM. Besides, in data set [26], the “Conc.: lowest multiple of MBC with at least 70% inhibition of S. aureus viability” value is on record as 2× MIC (2× MBC). The “Conc.: lowest multiple of MIC with at least 70% inhibition of S. aureus viability” value in [26] is on record as 2× MIC (2× MBC). Besides, the “S. aureus Viability Inhibition” value in data set [26] (at 2× MIC (2× MBC)) was 94% and 94.6%. For the same molecule, the “effect on plasma membrane permeability (crystal violet uptake)” value in [27] was “did not affect plasma membrane permeability”.

Take `CC(C)C[C@H](NC(=O)c1cc(Cl)ccc1O)C(=O)Nc1ccc(C(F)(F)F)cc1` [3f]: the MIC in data set [1] was 18.7 µM and 18.7 n.d. µM; in data set [4], 9.33 µM (≈ 4 µg/mL); in data set [5], 1.17 µM (≈ 0.502 µg/mL); in data set [7], 1.17 µM (≈ 0.502 µg/mL); in data set [9] it was 4.66 µM (≈ 2 µg/mL); in data set [12] (MS, three days, 37 °C), 18.7 n.d. µM. In addition, the MIC in [12] (setting [28]) is 18.7 µM (≈ 8.02 µg/mL); in [17], 4.66 µM (≈ 2 µg/mL); in data set [19], 0.07 µM (≈ 0.03 µg/mL); in data set [22], 1.17 µM (≈ 0.502 µg/mL). Further, the “log D6.5” value in [2] turned out to be 1.256. Moreover, the “log D7.4” value in [2] stood at 1.161. Further, in data set [2], the log k is given as 1.266. The minimal bactericidal concentration (MBC) in [3] amounted to 1.17 µM (≈ 0.502 µg/mL); in [6] it was 18.7 µM (≈ 8.02 µg/mL); in data set [11], 37.3 µM (≈ 16 µg/mL); in data set [14], 1.17 µM (≈ 0.502 µg/mL); in [15], 9.33 µM (≈ 4 µg/mL); in [16], 1.17 µM (≈ 0.502 µg/mL). The values for the MBC in data set [20] and in data set [24] were 0.07 µM (≈ 0.03 µg/mL) and 18.7 µM (≈ 8.02 µg/mL), respectively. This molecule also displayed an IC50 in data set [10] of 1.9 ± 1.1 µM. Also, the “Conc.: lowest multiple of MBC with at least 70% inhibition of S. aureus viability” value in data set [26] is 1× MIC (1× MBC). The “Conc.: lowest multiple of MIC with at least 70% inhibition of S. aureus viability” value in [26] is given as 1× MIC (1× MBC). Further, in data set [26] (at 1× MIC (1× MBC)), the “S. aureus Viability Inhibition” value was 95.3%. For the same molecule, in data set [26] (at their MIC value or below), the “viability of bacterial cells” value is given as “less than 70%”. Besides, the “effect on plasma membrane permeability (crystal violet uptake)” value in data set [27] was “did not affect plasma membrane permeability”.
